The text below walks through data of patent US8309734B2 (Hoffmann-La Roche Inc., priority 2008, dated 2012).

One may read the pEC50 as the EC50 on a negative log10 scale, so that one unit is a factor of ten. Low readings indicate a large EC50, high ones a small EC50.

Molecules are shown by their SMILES. pEC50: −log10 of the molar value.

For the experiment, the target named is T1, human GPBAR1 receptor (Homo sapiens, UniProt Q8TDU6).
T1 construct: expressed in transfected cells
T1 sequence (Q8TDU6 1-330): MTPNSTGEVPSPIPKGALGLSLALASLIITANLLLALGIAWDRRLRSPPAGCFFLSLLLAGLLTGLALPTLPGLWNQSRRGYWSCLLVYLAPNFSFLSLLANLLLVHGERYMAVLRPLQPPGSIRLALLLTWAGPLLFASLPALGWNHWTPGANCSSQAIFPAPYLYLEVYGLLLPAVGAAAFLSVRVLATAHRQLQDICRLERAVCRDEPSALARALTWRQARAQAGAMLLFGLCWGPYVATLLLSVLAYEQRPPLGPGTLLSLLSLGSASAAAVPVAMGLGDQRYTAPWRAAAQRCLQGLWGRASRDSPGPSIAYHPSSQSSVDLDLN
Put plainly: functional cAMP assay in CHO-dhfr(minus) cells expressing human GPBAR1 receptors. The class given is cell-based. The following applies: cAMP increase (TR-FRET) in CHO-dhfr(minus) cells expressing human GPBAR1; compounds incubated 30 min at 30° C. On the procedure:
The final clone was verified by DNA sequence analysis. The plasmid was transfected into CHO cells deficient in dihydrofolate reductase activity (CHO-dhfr-) using Lipofectamine plus (Invitrogen). Clones were isolated in limited dilution conditions and identified by activities in the cAMP assay using lithocholic acid as agonist.
The growth medium was exchanged with Krebs Ringer Bicarbonate buffer with 1 mM IBMX and incubated at 30° C. for 30 mM. Compounds were added to a final assay volume of 100 μl and incubated for 30 min at 30° C. […] The time-resolved energy transfer is measured by a TRF reader (Evotec Technologies GmbH, Hamburg Germany), equipped with a ND:YAG laser as excitation source. The plate is measured twice with the excitation at 355 nm and at the emission with a delay of 100 ns and a gate of 100 ns, total exposure time 10s at 730 (bandwith 30 nm) or 645 nm (bandwith 75 nm), respectively.
EC50 values were determined using Activity Base analysis (ID Business Solution, Limited). […] Specificity for GPBAR1 was tested in non-transfected CHO cells in the same assay as above.
Turning to `O=C(c1cccnc1Oc1cc(Cl)cc(Cl)c1)N1CCCc2ccccc21` [Example 17, [2-(3,5-Dichloro-phenoxy)-pyridin-3-yl]-(3,4-dihydro-2H-quinolin-1-yl)-methanone], the pEC50 is 6.75.

`O=C(c1cccnc1Oc1cccc(F)c1)N1CCCc2ccccc21` [Example 18, (3,4-Dihydro-2H-quinolin-1-yl)-[2-(3-fluoro-phenoxy)-pyridin-3-yl]-methanone] had a pEC50 of 6.49.

Take `CC(C)c1cccc(Oc2ncccc2C(=O)N2CCCc3ccccc32)c1` [Example 19, (3,4-Dihydro-2H-quinolin-1-yl)-[2-(3-isopropyl-phenoxy)-pyridin-3-yl]-methanone]: the pEC50 was 6.20.

The compound `CCc1cccc(Oc2ncccc2C(=O)N2CCCc3ccccc32)c1` [Example 20, (3,4-Dihydro-2H-quinolin-1-yl)-[2-(3-ethyl-phenoxy)-pyridin-3-yl]-methanone] showed a pEC50 of 6.33.

For `O=C(c1cccnc1Oc1cccc(I)c1)N1CCCc2ccccc21` [Example 21, (3,4-Dihydro-2H-quinolin-1-yl)-[2-(3-iodo-phenoxy)-pyridin-3-yl]-methanone], the negative logarithm of the EC50 (pEC50) was 6.46.

In the case of `O=C(c1cccnc1Oc1cc(C(F)(F)F)cc(Cl)c1F)N1CCCc2ccccc21` [Example 22, [2-(3-Chloro-2-fluoro-5-trifluoromethyl-phenoxy)-pyridin-3-yl]-(3,4-dihydro-2H-quinolin-1-yl)-methanone], the pEC50 is 6.19.

As for `O=C(c1cccnc1Oc1cccc(Br)c1)N1CCCc2ccccc21` [Example 23, [2-(3-Bromo-phenoxy)-pyridin-3-yl]-(3,4-dihydro-2H-quinolin-1-yl)-methanone], the pEC50 is 6.63.

For the compound `O=C(c1cc(F)cnc1Oc1cccc(Cl)c1)N1CCCc2ccccc21` [Example 25, [2-(3-Chloro-phenoxy)-5-fluoro-pyridin-3-yl]-(3,4-dihydro-2H-quinolin-1-yl)-methanone], the pEC50 is 6.89. This pEC50 lies 0.26 log units higher than the previous one.

Compound `O=C(c1cc(F)cnc1Oc1cc(F)ccc1F)N1CCCc2ccccc21` [Example 26, [2-(2,5-Difluoro-phenoxy)-5-fluoro-pyridin-3-yl]-(3,4-dihydro-2H-quinolin-1-yl)-methanone] had a negative logarithm of the EC50 (pEC50) of 6.97.

The compound `O=C(c1cc(Cl)cnc1Oc1cc(Cl)ccc1Cl)N1CCCc2ccccc21` [Example 27, [5-Chloro-2-(2,5-dichloro-phenoxy)-pyridin-3-yl]-(3,4-dihydro-2H-quinolin-1-yl)-methanone] gave a pEC50 of 6.84.

As for `O=C(c1cc(Cl)cnc1Oc1cc(F)ccc1F)N1CCCc2ccccc21` [Example 28, [5-Chloro-2-(2,5-difluoro-phenoxy)-pyridin-3-yl]-(3,4-dihydro-2H-quinolin-1-yl)-methanone], the pEC50 is 5.70.

`O=C(c1ccc(C(F)(F)F)nc1Oc1cc(Cl)ccc1Cl)N1CCCc2ccccc21` [Example 29, [2-(2,5-Dichloro-phenoxy)-6-trifluoromethyl-pyridin-3-yl]-(3,4-dihydro-2H-quinolin-1-yl)-methanone]: the pEC50 is 6.84. This pEC50 lies 1.14 log units higher than the previous one.

As to `O=C(c1cccnc1Oc1cccc(Cl)c1)N1CCOc2ccccc21` [Example 30, [2-(3-Chloro-phenoxy)-pyridin-3-yl]-(2,3-dihydro-benzo[1,4]oxazin-4-yl)-methanone], the pEC50 is 6.36.

`Cc1ccc2c(c1)CCCN2C(=O)c1cccnc1Oc1cc(Cl)ccc1Cl` [Example 31, [2-(2,5-Dichloro-phenoxy)-pyridin-3-yl]-(6-methyl-3,4-dihydro-2H-quinolin-1-yl)-methanone] had a pEC50 of 6.86.

Consider `CCN(C(=O)c1cccnc1Oc1cc(Cl)ccc1Cl)c1ccccc1` [Example 32, 2-(2,5-Dichloro-phenoxy)-N-ethyl-N-phenyl-nicotinamide], for which the pEC50 is 7.15.

`O=C(c1cccnc1Oc1cc(Cl)ccc1Cl)N1CCCc2ccc(Cl)cc21` [Example 33, (7-Chloro-3,4-dihydro-2H-quinolin-1-yl)-[2-(2,5-dichloro-phenoxy)-pyridin-3-yl]-methanone] showed a pEC50 of 6.69.

`O=C(c1cccnc1Oc1cc(Cl)ccc1Cl)N1CCCc2ccc(F)cc21` [Example 34, [2-(2,5-Dichloro-phenoxy)-pyridin-3-yl]-(7-fluoro-3,4-dihydro-2H-quinolin-1-yl)-methanone] gave a pEC50 of 7.24.

In turn, `CN(C(=O)c1cccnc1Oc1cc(Cl)ccc1Cl)c1ccccc1` [Example 35, 2-(2,5-Dichloro-phenoxy)-N-methyl-N-phenyl-nicotinamide] gave a pEC50 of 6.55. This pEC50 is 0.69 log units lower than that of the compound before.

For the compound `O=C(c1cccnc1Oc1cc(Cl)ccc1Cl)N1CCOc2ccccc21` [Example 36, [2-(2,5-Dichloro-phenoxy)-pyridin-3-yl]-(2,3-dihydro-benzo[1,4]oxazin-4-yl)-methanone], the pEC50 was 6.87.

`O=C(c1cccnc1Oc1cc(Cl)ccc1Cl)N1CCCc2cc(F)ccc21` [Example 37, [2-(2,5-Dichloro-phenoxy)-pyridin-3-yl]-(6-fluoro-3,4-dihydro-2H-quinolin-1-yl)-methanone] showed a negative-log EC50 (pEC50) of 7.55.

As to `O=C(c1cccnc1Oc1cc(Cl)ccc1Cl)N1CCCc2cc(F)c(F)cc21` [Example 38, [2-(2,5-Dichloro-phenoxy)-pyridin-3-yl]-(6,7-difluoro-3,4-dihydro-2H-quinolin-1-yl)-methanone], the pEC50 was 7.24.

Regarding `O=C(c1cccnc1Oc1cc(Cl)ccc1Cl)N1CCSc2ccccc21` [Example 39, [2-(2,5-Dichloro-phenoxy)-pyridin-3-yl]-(2,3-dihydro-benzo[1,4]thiazin-4-yl)-methanone], the pEC50 is 7.54. This pEC50 is 0.30 log units higher than that of the compound before.

Turning to `CN(C(=O)c1cccnc1Oc1cc(Cl)ccc1Cl)c1ccccc1Cl` [Example 40, N-(2-Chloro-phenyl)-2-(2,5-dichloro-phenoxy)-N-methyl-nicotinamide], the pEC50 is 6.99.

`Cc1ccccc1N(C)C(=O)c1cccnc1Oc1cc(Cl)ccc1Cl` [Example 41, 2-(2,5-Dichloro-phenoxy)-N-methyl-N-o-tolyl-nicotinamide] showed a pEC50 of 7.48. Against the preceding compound, the pEC50 is 0.49 log units higher.

`COc1ccccc1N(C)C(=O)c1cccnc1Oc1cc(Cl)ccc1Cl` [Example 42, 2-(2,5-Dichloro-phenoxy)-N-(2-methoxy-phenyl)-N-methyl-nicotinamide] showed a negative-log EC50 (pEC50) of 7.70.

The compound `CN(C(=O)c1cccnc1Oc1cc(Cl)ccc1Cl)c1ccccc1-c1ccccc1` [Example 43, N-Biphenyl-2-yl-2-(2,5-dichloro-phenoxy)-N-methyl-nicotinamide] had a pEC50 of 6.30.

`O=C(c1cccnc1Oc1cc(Cl)ccc1Cl)N1CCCc2cc(F)cc(F)c21` [Example 44, [2-(2,5-Dichloro-phenoxy)-pyridin-3-yl]-(6,8-difluoro-3,4-dihydro-2H-quinolin-1-yl)-methanone]: the pEC50 was 7.36.

Take `CCc1ccccc1N(C)C(=O)c1cccnc1Oc1cc(Cl)ccc1Cl` [Example 45, 2-(2,5-Dichloro-phenoxy)-N-(2-ethyl-phenyl)-N-methyl-nicotinamide]: the pEC50 is 7.04. Compared with the last compound, the pEC50 is 0.32 log units lower.

Regarding `CN(C(=O)c1cccnc1Oc1cc(Cl)ccc1Cl)c1ncccc1Cl` [Example 46, N-(3-Chloro-pyridin-2-yl)-2-(2,5-dichloro-phenoxy)-N-methyl-nicotinamide], the pEC50 is 6.04.

Compound `CN(C(=O)c1cccnc1Oc1cc(Cl)ccc1Cl)c1cnccc1Cl` [Example 47, N-(4-Chloro-pyridin-3-yl)-2-(2,5-dichloro-phenoxy)-N-methyl-nicotinamide] showed a pEC50 of 5.90. This pEC50 and that of the compound before are within 0.2 log units of each other.
